Measured values from US20250136586A1, “Substituted 7-(Pyrimidin-4-yl)Quinolin-4(1H)-One Compounds as Cyclin Dependent Kinase Inhibitors” (BeiGene, Ltd., priority 2022, published 2025).
pIC50: −log10 of the molar value.

What was measured:
[1] = biological target: CDK6/Cyclin D3 (Homo sapiens (Human), UniProt Q00534); experiment: TR-FRET kinase inhibition assay, CDK6/Cyclin D3; type: biochemical; conditions: 1 mM ATP, 0.15 μM Rb (Ser780)-biotin substrate, read-out: CDK6D3 IC50
Procedure, shortened: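 Kinase preincubated 60 min at room temperature with 0–10 μM compound; reaction started with 1 mM ATP and 0.15 μM Rb (Ser780)-biotin, run 120 min at room temperature in HEPES pH 7.0, 50 mM MgCl2. pRb detected by TR-FRET (665/620 nm ratio); IC50 from four-parameter logistic fit.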

[2] = biological target: CDK4/Cyclin D1 (Homo sapiens (Human), UniProt P11802); experiment: TR-FRET kinase inhibition assay, CDK4/Cyclin D1; type: biochemical; conditions: 1 mM ATP, 0.15 μM Rb (Ser780)-biotin substrate, read-out: CDK4D1 IC50
Procedure, shortened: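 Kinase was preincubated with compound for 60 min at room temperature, then reacted with ATP and Rb (Ser780)-biotin substrate for 120 min. IC50 came from a four-parameter logistic fit.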

Sequence of CDK4/Cyclin D1 (P11802 whole entry): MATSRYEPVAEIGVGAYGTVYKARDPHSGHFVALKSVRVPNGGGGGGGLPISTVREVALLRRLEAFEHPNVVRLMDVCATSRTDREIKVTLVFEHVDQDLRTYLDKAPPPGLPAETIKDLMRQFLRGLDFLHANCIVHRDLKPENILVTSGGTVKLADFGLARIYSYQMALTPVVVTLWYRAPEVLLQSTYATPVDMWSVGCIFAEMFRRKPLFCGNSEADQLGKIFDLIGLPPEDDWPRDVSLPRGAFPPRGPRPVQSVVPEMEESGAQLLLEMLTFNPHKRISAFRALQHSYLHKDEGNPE
Sequence of CDK4/Cyclin D1 (P24385 whole entry partner): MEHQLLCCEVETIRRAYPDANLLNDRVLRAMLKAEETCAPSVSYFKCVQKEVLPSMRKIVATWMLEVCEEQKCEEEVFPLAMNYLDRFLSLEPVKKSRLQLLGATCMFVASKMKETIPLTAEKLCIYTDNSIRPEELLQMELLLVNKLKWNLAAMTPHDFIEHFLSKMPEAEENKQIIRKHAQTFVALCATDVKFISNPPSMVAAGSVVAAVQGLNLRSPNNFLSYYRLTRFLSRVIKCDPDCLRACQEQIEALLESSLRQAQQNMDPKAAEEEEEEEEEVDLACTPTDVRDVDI
Sequence of CDK6/Cyclin D3 (Q00534 whole entry): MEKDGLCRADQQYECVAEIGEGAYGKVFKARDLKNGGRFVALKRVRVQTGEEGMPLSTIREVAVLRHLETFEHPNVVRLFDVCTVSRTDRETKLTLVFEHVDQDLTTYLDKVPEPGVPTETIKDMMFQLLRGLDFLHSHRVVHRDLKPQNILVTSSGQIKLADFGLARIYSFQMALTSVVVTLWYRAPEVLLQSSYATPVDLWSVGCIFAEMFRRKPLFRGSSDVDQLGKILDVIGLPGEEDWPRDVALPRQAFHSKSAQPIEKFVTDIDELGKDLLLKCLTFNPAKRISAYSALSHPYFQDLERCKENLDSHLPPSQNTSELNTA
Sequence of CDK6/Cyclin D3 (P30281 whole entry partner): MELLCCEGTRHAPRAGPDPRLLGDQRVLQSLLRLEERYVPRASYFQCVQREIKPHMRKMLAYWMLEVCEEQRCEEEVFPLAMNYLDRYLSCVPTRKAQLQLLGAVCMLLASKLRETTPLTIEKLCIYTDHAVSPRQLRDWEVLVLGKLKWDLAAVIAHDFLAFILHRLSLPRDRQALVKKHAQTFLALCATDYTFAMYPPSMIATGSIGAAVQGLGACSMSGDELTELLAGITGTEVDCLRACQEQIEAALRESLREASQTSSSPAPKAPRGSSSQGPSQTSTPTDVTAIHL

pIC50 [1]	pIC50 [2]	Structure (SMILES)
6.58	8.23	Cc1c(CN)n(C(C)C)c2cc(-c3nc(N[C@@H]4CCOC[C@H]4O)ncc3F)ccc2c1=O [Example 120, 2-(aminomethyl)-7-(5-fluoro-2-(((3S,4R)-3-hydroxytetrahydro-2H-pyran-4-yl)amino)pyrimidin-4-yl)-1-isopropyl-3-methylquinolin-4(1H)-one]
6.05	7.62	CC(C)n1c(CN2CCC(C)(O)CC2)cc(=O)c2ccc(-c3nc(N[C@@H]4CCOC[C@H]4O)ncc3F)cc21 [Example 38, 7-(5-fluoro-2-(((3S,4R)-3-hydroxytetrahydro-2H-pyran-4-yl)amino)pyrimidin-4-yl)-2-((4-hydroxy-4-methylpiperidin-1-yl)methyl)-1-isopropylquinolin-4(1H)-one]
6.83	8.24	CC(C)n1c(CN2CC[C@H](F)C2)cc(=O)c2ccc(-c3nc(N[C@@H]4CCOC[C@H]4O)ncc3F)cc21 [Example 27, 7-(5-fluoro-2-(((3S,4R)-3-hydroxytetrahydro-2H-pyran-4-yl)amino)pyrimidin-4-yl)-2-(((S)-3-fluoropyrrolidin-1-yl)methyl)-1-isopropylquinolin-4(1H)-one]
